From patent US11771681B2, “Therapeutic compounds” (SMALL PHARMA LTD, priority 2019, dated 2023)

Key:
human hepatocytes = experiment: In vitro intrinsic clearance in human hepatocytes; format: in vitro ADME; details: human (mixed gender) hepatocytes pooled from 10 donors, 0.545 million cells/mL; 5 μM; up to 60 minutes at 37° C.; calculated, weighted on ratio of D0, D1 and D2
Description: (§1) Human (mixed gender) hepatocytes pooled from 10 donors (0.545 million cells/mL) were used to investigate the in vitro intrinsic clearance of DMT and 6 deuterated analogues.
(§2) A concentration of 5 μM was used for all test compounds, as well as sumatriptan, serotonin, benzylamine controls. This concentration was chosen in order to maximise the signal-to-noise ratio, while remaining under the Michaelis constant (Km) for the monoamine oxidase enzyme (MAO). Diltiazem and diclofenac controls were used at a laboratory-validated concentration of 1 μM.
(§3) Test compounds were mixed with the hepatocyte suspension within a 96-well plate and incubated for up to 60 minutes at 37° C. […] At 7 time points, small aliquots were withdrawn, and the test compound/blend concentration therein was measured by LC-MS/MS. The time points measured were 2, 4, 8, 15, 30, 45 and 60 minutes. […]
(§4) The MRM transitions were determined from a preliminary analysis of DMT samples containing either no deuterium (for D0 transition), or high levels of either D1 or D2 deuteration (for the D1 and D2 transitions respectively).
(§5) The resulting concentration-time profile was then used to calculate intrinsic clearance (CLint) and half-life (t½). […] Intrinsic clearance is calculated from the slope/elimination rate constant and the formula is CLint=(−1000*slope)/cell density in 1E6 cells/ml, to give units of microlitre/min/million cells. […]

[1] = In vitro intrinsic clearance in human hepatocytes; format: in vitro ADME; details: both sexes, pooled hepatocytes in suspension, human (mixed gender) hepatocytes pooled from 10 donors, 0.545 million cells/mL, up to 60 minutes at 37° C., weighted on ratio of D0, D1 and D2
Description: as §1, §2, §3, §4, §5

## CN(C)CCc1c[nH]c2ccccc12 [DMT, N,N-dimethyltryptamine]
Human hepatocytes
  Half-life: 92.39 min
[1]
  hepatocyte CLint at 5 μM: 13.8 µL/min/1e6 cells
